Laboratory results from patent publication US20220118123A1, “COMBINATION OF AR ANTAGONISTS AND TARGETED THORIUM CONJUGATES” (Bayer Aktiengesellschaft, priority 2019, published 2022).

Key:
C4-2 cells [1] = experiment: in vitro cytotoxicity of PSMA-TTC with AR antagonist pre-treatment, cell titer Glo cell viability; format: cell-based; details: then PSMA-TTC dose titration (50 MBq/mg), 5 days incubation
Description: (§1) The effects of PSMA-TTC compound A′ and compound B (darolutamide, ODM-201) or compound C (enzalutamide) in PSMA overexpressing prostate cancer cell lines LNCaP and C4-2 were investigated in vitro. LNCaP (hormone sensitive) and C4-2 (hormone insensitive) cells were co-cultured in presence of either enzalutamide or darolutamide/ODM-201 and the effect on cell binding of PSMA-conjugate and cytotoxicity of PSMA-TTC was evaluated.
C4-2 and LNCaP cells were seeded in similar cell medium (RPMI/10% FBS/1% HEPES/1% MEM NEAA/1% NaPyruvate/1% L-glutamine). One day after seeding, cells were exposed to either enzalutamide (1 μM), darolutamide (=ODM-201) (10 μM) or DMSO (0.1% (v/v); reference). Seven, 14 and 21 days after co-culturing, the cells were analyzed for cell surface binding of PSMA antibody-chelator conjugate by flow cytometry. […] In addition, cells pre-treated in the presence or absence of AR antagonists at the respective concentrations entered cytotoxicity experiments using cell titer Glo (Promega) as readout for cell viability.
Respective cells pretreated for 0 or 7 days with AR antagonists were seeded on Day −1 at an appropriate cell density (e.g. 1000 cells/well). […] Cell viability was measured after incubation for 5 days in the presence of dose titrations of PSMA-TTC or corresponding controls. […]

C4-2 cells [2] = experiment: cell surface binding of PSMA antibody-chelator conjugate by flow cytometry after co-culture with AR antagonists; format: cell-based; details: 10 μM darolutamide; 7, 14 and 21 days co-culturing; saturating conjugate concentrations; vs DMSO reference
Description: as §1
C4-2 and LNCaP cells were seeded in similar cell medium (RPMI/10% FBS/1% HEPES/1% MEM NEAA/1% NaPyruvate/1% L-glutamine). One day after seeding, cells were exposed to either enzalutamide (1 μM), darolutamide (=ODM-201) (10 μM) or DMSO (0.1% (v/v); reference). Seven, 14 and 21 days after co-culturing, the cells were analyzed for cell surface binding of PSMA antibody-chelator conjugate by flow cytometry. The binding of PSMA conjugate at saturating concentrations increased in both cell lines after treatment with the AR antagonists: maximal binding of PMSA conjugate was increased by 1 μM enzalutamide by 1.9 to 2.8 fold and by 10 μM darolutamide by 1.7-3.6 fold. Similar results were obtained in LNCaP cells. In addition, cells pre-treated in the presence or absence of AR antagonists at the respective concentrations entered cytotoxicity experiments using cell titer Glo (Promega) as readout for cell viability.

[3] = tested on: KUCaP-1 human patient derived prostate cancer model; experiment: anti-tumor activity in KUCaP-1 patient derived prostate cancer xenograft model; format: in vivo, mice; details: KUCaP-1, day 32
[4] = tested on: ST1273 human patient derived prostate cancer model; experiment: anti-tumor activity in ST1273 patient derived prostate cancer xenograft model; format: in vivo, mice
[5] = ST1273, 26 days after dosing/start of treatment

**Q.** Which “sensitivity to growth inhibition by PSMA-TTC” value (C4-2 cells [1]; darolutamide 10 μM for 7 days) does the source give for CC(O)c1cc(C(=O)N[C@@H](C)Cn2ccc(-c3ccc(C#N)c(Cl)c3)n2)n[nH]1 (stereo partly drawn) [darolutamide, N-((S)-1-(3-(3-Chloro-4-cyanophenyl)-1H-pyrazol-1-yl-)-propan-2-yl)-5-(1-hydroxyethyl)-1H-pyrazole-3-carboxamide] here?
**A.** increased sensitivity to growth inhibition by PSMA-TTC

**Q.** What about the “increase of maximal binding of PSMA conjugate” value (C4-2 cells [2]) of the same compound?
**A.** 1.7-3.6 fold

**Q.** And the “PD, progressive disease (mice/group)” value [3]?
**A.** (PD: 10/10)

**Q.** What about the “Response rate (RR)” value ([3]; PSMA-TTC 150 kBq/kg i.v., darolutamide 200 mg/kg QD p.o.) of the same compound?
**A.** RR: 0%

**Q.** With CNC(=O)c1ccc(N2C(=S)N(c3ccc(C#N)c(C(F)(F)F)c3)C(=O)C2(C)C)cc1F [enzalutamide] as the compound, how does the “complete response, share of the mice” value [4, 5] read?
**A.** 33%

**Q.** What about the “partial response, share of the mice” value [4, 5] of the same compound?
**A.** 67%

**Q.** What about the “CR, complete response (mice/group)” value ([4]; ST1273, day 26) of the same compound?
**A.** (CR: 3/9,

**Q.** And the “PR, partial response (mice/group)” value ([4]; ST1273, day 26)?
**A.** PR: 6/9)

**Q.** What about the “Response rate (RR)” value ([4]; ST1273, day 26, PSMA-TTC 250 kBq/kg single i.v., enzalutamide 30 mg/kg QD×28 p.o.) of the same compound?
**A.** RR: 100%

**Q.** What about the “sensitivity to growth inhibition by PSMA-TTC” value (C4-2 cells [1]; enzalutamide 1 μM for 7 days) of the same compound?
**A.** increased sensitivity to growth inhibition by PSMA-TTC
